From US8815934B2, “2-Phenyl-1-[4-(2-Aminoethoxy)-Benzyl]-Indole and estrogen formulations” (Wyeth LLC, priority 1998, dated 2014)

Tested on: Female Sprague Dawley CD rats, ovx
Experiment: 6-week ovariectomized rat model
Format: in vivo
Conditions: 2 μg/rat s.c. daily, mean ± SEM
Source text: Female Sprague Dawley CD rats, ovx or sham ovx, were obtained 1 day after surgery from Taconic Farm (weight range 240-275 g). They were housed 3 or 4 rats/cage in a room on a 14/10 (light/dark) schedule and provided with food (Purina 500 rat chow) and water ad libitum. Treatment for all studies began 1 day after the animals arrival and dosed 5 or 7 days per week as indicated for 6 weeks. A group of age matched sham operated rats not receiving any treatment served as an intact, estrogen replete control group for each study. All treatments were prepared in 1% […] in normal saline at defined concentrations so that the treatment volume was 0.1 mL/100 g body weight. 17-beta estradiol was dissolved in corn oil (20 uG/mL) and delivered subcutaneously; 0.1 mL/rat. All dosages were adjusted at three week intervals according to group mean body weight measurements.
Five weeks after the initiation of treatment and one week prior to the termination of the study, each rat was evaluated for bone mineral density (BMD). The BMD's of the proximal tibiae (PT) and fourth lumbar vertabrae (L4) were measured in anesthetized, rats using a dual energy X-ray absorptiometer (Eclipse XR-26, Norland Corp. Ft. Atkins, Wis.). […] Total choleserol is determined using a Boehringer-Mannheim Hitachi 911 clinical analyzer using the Cholesterol/HP kit. […]

In the case of `C[C@]12CC[C@@H]3c4ccc(O)cc4CC[C@H]3[C@@H]1CC[C@@H]2O` [17β-estradiol], the “BMD L4” value (following 5 weeks of treatment) is reported as 0.169 ± 0.004 mg/cm^2 and the Cholesterol (following 6 weeks of treatment) is reported as 95.5 ± 3.9 mg/dL.
